Assay results published in paper PMC5607274, “An iterative compound screening contest method for identifying target protein inhibitors using the tyrosine-protein kinase Yes” (Scientific Reports, 2017).

These compounds were tested against T1, human recombinant Yes [a.a. 2–543 (end)] (Homo sapiens, UniProt P07947) (assay: ADP-Glo kinase assay, inhibition rates of Yes phosphorylation activity (first and second screening)). Conditions: first screening; mean of n = 4 wells; 10 μmol L−1 compound.
T1 construct: human recombinant Yes [a.a; 2–543 (end)]; purchased BPS Bioscience 40488
T1 sequence (P07947 2-543): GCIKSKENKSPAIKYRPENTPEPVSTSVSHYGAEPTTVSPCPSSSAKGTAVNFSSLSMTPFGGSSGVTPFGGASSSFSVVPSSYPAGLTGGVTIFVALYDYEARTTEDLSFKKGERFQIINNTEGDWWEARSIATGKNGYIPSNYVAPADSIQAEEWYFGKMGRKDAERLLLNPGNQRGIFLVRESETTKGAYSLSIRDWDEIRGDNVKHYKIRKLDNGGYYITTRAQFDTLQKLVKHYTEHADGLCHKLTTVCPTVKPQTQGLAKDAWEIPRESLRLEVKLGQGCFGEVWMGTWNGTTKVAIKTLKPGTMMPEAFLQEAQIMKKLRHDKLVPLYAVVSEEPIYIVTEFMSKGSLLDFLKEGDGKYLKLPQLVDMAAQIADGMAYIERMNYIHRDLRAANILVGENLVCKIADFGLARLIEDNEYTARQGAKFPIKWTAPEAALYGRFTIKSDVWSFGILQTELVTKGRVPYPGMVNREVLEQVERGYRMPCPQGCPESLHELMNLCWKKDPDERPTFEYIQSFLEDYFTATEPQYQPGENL
Format: biochemical
How it was run: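 ADP-Glo luminescence measured inhibition of human recombinant Yes (a.a. 2–543) phosphorylation activity. In the first screen, each compound ran in 4 wells and inhibition rates were averaged. The second screen retested hits as compounds dissolved from fresh powder.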

SMILES	First screening IR (inhibition rate)
CN(c1ccc(OC(=O)C23CC4CC(CC(Cl)(C4)C2)C3)cc1)S(=O)(=O)c1ccccc1F [Compound Z29631119]	5%
CC(=O)NC12CC3CC(C1)CC(C(=O)Oc1ccc(N(C)S(=O)(=O)c4cc(C)ccc4C)cc1)(C3)C2 [Compound Z29631809]	1%
O=C(/C=C/c1cn(-c2ccccc2)nc1-c1cccnc1)N1CC=C(c2ccccc2)CC1 [Compound Z29699890]	10%
Cc1cc(F)ccc1NC(=O)C(C)Oc1cccc(Cl)c1 (stereo not shown) [Compound Z29827650]	11%
O=C(NCc1cccc(C(F)(F)F)c1)c1n[nH]c(=O)c2ccccc12 [Compound Z29859952]	6%
Cc1cc(NC(=O)C(C)SCC(=O)Nc2cccc3ncccc23)no1 (stereo not shown) [Compound Z29903633]	-3%
CCOC(=O)c1sc(-c2cccc([N+](=O)[O-])c2)cc1NC(=O)CCc1ccccc1 [Compound Z29956667]	-1%
Cc1nn(-c2ccccc2)c2sc(C(=O)NCc3ccccn3)cc12 [Compound Z30166588]	1%
O=C(NCCCn1ccnc1)C1CCN(C(=O)c2ccc(F)cc2)CC1 [Compound Z30216742]	41%
CCCOc1c(Br)cc(C(=O)Nc2cccc(S(=O)(=O)N(CC)CC)c2)cc1OC [Compound Z30220173]	20%
O=C(CCCSc1nc2ccccc2[nH]1)Nc1ccc(-c2nc3ccccc3[nH]2)cc1 [Compound Z30270226]	17%
O=C(NCCSc1ccc(Br)cc1)c1ccc2nc[nH]c2c1 [Compound Z30463043]	7%
O=C(Nc1cccc(C(F)(F)F)c1)c1cccc(NC(=O)c2cnccn2)c1 [Compound Z30576843]	14%
COc1ccc(-c2cc(C(=O)OCc3ccccn3)c3ccccc3n2)cc1OC [Compound Z30610492]	-9%
NC(=O)NCc1ccc(C(=O)N2CCN(c3ncc(C(F)(F)F)cc3Cl)CC2)cc1 [Compound Z30640594]	4%
C=CCN1C(=O)c2ccc(C(=O)Nc3cc(C)cc(C)c3)cc2C1=O [Compound Z30888972]	20%
CC(=O)c1ccc(-c2ccc(C(=O)Nc3cc(F)ccc3C)o2)cc1 [Compound Z30903878]	-3%

Further lines, results first:

First screening IR (inhibition rate)	SMILES
12%	CCOC(=O)c1c(NC(=O)CN2CCN(c3cccc(Cl)c3)CC2)sc(Cc2ccc3c(c2)OCO3)c1C [Compound Z30983122]
-13%	Cc1sc2nc(CN3CCOCC3)nc(Oc3ccc(NC(=O)c4ccc(C(C)(C)C)cc4)cc3)c2c1C [Compound Z31089732]
0%	CN(C)c1ccc(C(CNc2ncccc2C#N)c2c[nH]c3ccccc23)cc1 (stereo not shown) [Compound Z31123519]
9%	Cc1sc2nc(CSc3ccccc3)nc(N3CCCC3C(N)=O)c2c1C (stereo not shown) [Compound Z31132453]
45%	Cc1sc2nc(CN3CCCC3)nc(N(C)CC(=O)Nc3ccc(N4CCOCC4)cc3)c2c1C [Compound Z31148700]
-14%	CCCN1CCN(c2ccc(S(=O)(=O)NC3CCC(C)CC3)cc2[N+](=O)[O-])CC1 (stereo not shown) [Compound Z31152357]
7%	COc1ccc(Cl)cc1NC(=O)CN(C)c1nc(CN2CCOCC2)nc2sc3c(c12)CCC(C)C3 (stereo not shown) [Compound Z31158506]
6%	CCN(CC)S(=O)(=O)c1ccc(N2CCN(S(=O)(=O)c3ccccc3C#N)CC2)nc1 [Compound Z31169752]
14%	Cc1sc2ncnc(Nc3ccc4c(c3)OCO4)c2c1C [Compound Z31191207]
8%	CN(Cc1ccccc1)c1nc(CN2CCOCC2)nc2sc3c(c12)CCC3 [Compound Z31196583]
13%	Cc1sc2nc(-c3cccnc3)nc(N3CCOCC3)c2c1-c1ccccc1 [Compound Z31211547]
